The values below are quoted from earlier work in patent US8841476B2, “Preparation of crystalline ezatiostat hydrochloride ansolvate form D” (Telik, Inc., priority 2010, dated 2014).

Series [1] has as its system HL-60 promyelocytic leukemia cells. The following applies: in vitro.
For series [2] the following is noted: in vitro.
For series [3] the following is noted: in vivo.
For series [4], the system named is hematopoietic progenitor cells in normal human peripheral blood.
For series [5] the following is noted: ezatiostat hydrochloride in a liposomal injectable formulation, MDS trial, Raza et al. 2009.

Structures are written as SMILES. Where two headings read alike, the source gives them in different places.

On to `CCOC(=O)[C@@H](N)CCC(=O)N[C@@H](CSCc1ccccc1)C(=O)N[C@@H](C(=O)OCC)c1ccccc1` [Ezatiostat], for which, in series [1], the “differentiation of HL-60 promyelocytic leukemia cells” value is “induce the differentiation”. Besides, the “potentiation of the activity of cytotoxic agents” value in series [2] and in series [3] was “potentiate the activity of cytotoxic agents” throughout. In series [4], the “colony formation of hematopoietic progenitor cells” value is “stimulate colony formation of all three lineages”. Moreover, the “white blood cell production” value runs as follows: (animals in which white blood cells were depleted by treatment with cisplatin or fluorouracil) “increase white blood cell production”; (normal animals) “increase white blood cell production”. The hematologic improvement entry in series [5] is “multi-lineage hematologic improvement”. Besides, the tolerability entry in series [5] was “well tolerated”.
